In patent US20030212254A1, “Use of an anion exchange resin (emp-7) as solid support for peptide synthesis and affinity chromatography” (priority 1999, published 2003):

System: monoclonal antibody specific for (NANP)3 / recombinant protein containing the repetitive domain (NANP)n interaction
Assay: Inhibition ELISA: inhibition of the monoclonal antibody-recombinant protein interaction
Type: binding, mouse
Settings: 2000 to 3,9 μg/ml peptide or peptide-resin; 2 h at room temperature; absorbance at 492 nm; FIG. 6
Method: In brief, the designed immunological experiment encompassed the following steps: the purified recombinant protein containing the repetitive domain (NANP)n of the circunsporozoite form of Plasmodium falciparum (v.g. Cell, 70, 1021-1033, [1992]) was added to Elisa's plate (200 ng/well) and maintained overnight at room temperature. After 3 washes with phosphate buffer containing 0,05% Tween-20, the plates were treated at 37° C. with PBS containing 5% disnatured milk and 1% serum bovine albumin. To calculate the degree of interaction of this recombinant protein with its antibody, the plates were treated with a specific monoclonal antibody for the (NANP)3 sequence obtained according to the reference in Science 228, 1436-1440 (1985), in a final concentration of 20 ng/ml. […] After 1 h of incubation at room temperature, the excess of labeled antibody was removed during the washings and the calorimetric reaction with o-phenilenediamine was developed and read at 492 nm. […]
100 μl of PBS were added to 2000 μg/ml to 3,9 μg/ml of free peptide (acetyl-NANP)3 or of {[(acetil-NANP)3]4-Eac4-(Lys)2-Lys-DEAE-Sephadex A50}resin. […] The absorbance of solutions was measured at 492 nm and the percentage of inhibition of this interaction antibody-recombinant protein induced by peptide-resin, resin or peptide was calculated according to the equation: […]

acetyl-(NANP)3 [free (acetyl-NANP)3]
inhibition of the antibody-recombinant protein interaction: highest inhibition
